Source: patent US12252524B2, “GIP/GLP1 co-agonist compounds” (Eli Lilly and Company, priority 2018, dated 2025)
Numbered stars: 1 amine (or outer) side, 2 acyl side, 3 side chain; on linkers, the order of the positions; unused ones are H or OH. Square brackets hold non-standard residues; d marks the D form. Side chains are listed from the residue outwards. Peptide text beside a SMILES is read from it. * marks the point of attachment. C20 diacid = O=C(O)CCCCCCCCCCCCCCCCCCC(=O)*; C18 diacid = O=C(O)CCCCCCCCCCCCCCCCC(=O)*; γGlu = O=C(O)[C@H](CCC(=O)[*:2])N[*:1]; αMeL = CC(C)C[C@](C)(N)C(=O)O; Orn = NCCC[C@H](N)C(=O)O; AEEA = NCCOCCOCC(=O)O; Aib = CC(C)(N)C(=O)O

What was measured:
[1] = target: T1, gastric inhibitory peptide receptor (GIPR) (Homo sapiens, UniProt P48546); experiment: cAMP pharmacological functional assay in presence of casein, hGIPR; assay type: cell-based; settings: HEK293 cells expressing hGIPR, 0.1% Casein, geometric mean; read-out: hGIPR cAMP Rel EC50 nM (SEM, n)
T1 sequence (P48546 22-466): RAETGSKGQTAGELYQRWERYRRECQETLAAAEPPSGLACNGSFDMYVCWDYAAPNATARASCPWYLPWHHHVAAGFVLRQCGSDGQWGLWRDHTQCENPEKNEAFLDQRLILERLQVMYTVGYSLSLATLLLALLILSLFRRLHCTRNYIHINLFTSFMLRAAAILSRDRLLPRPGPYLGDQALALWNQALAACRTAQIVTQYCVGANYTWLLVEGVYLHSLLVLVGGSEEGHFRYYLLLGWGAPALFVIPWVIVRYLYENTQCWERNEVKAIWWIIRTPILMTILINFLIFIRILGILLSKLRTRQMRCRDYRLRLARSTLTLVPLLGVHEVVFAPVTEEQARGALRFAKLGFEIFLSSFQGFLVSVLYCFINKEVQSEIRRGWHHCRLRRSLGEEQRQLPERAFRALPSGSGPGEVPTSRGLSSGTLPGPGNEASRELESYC

[2] = target: human GLP-1 receptor (GLP-1R) (Homo sapiens, UniProt P43220); experiment: cAMP pharmacological functional assay in presence of casein, hGLP-1R; assay type: cell-based; settings: HEK293 cells expressing hGLP-1R, 0.1% Casein, geometric mean; read-out: hGLP1R cAMP Rel EC50 nM (SEM, n)
[3] = target: T2, human GLP-1R (Homo sapiens, UniProt P43220); experiment: GLP-1R CHO cell β-arrestin recruitment assay; assay type: cell-based; set-up: host or cells: CHO-K1 PathHunter cells, assay-ready frozen; settings: for EC50: CHO-K1 cells; for hGLP1R B-Arrestin2 % Top: normalized to GLP-1 maximum control
Summary of the method: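 PathHunter CHO-K1 cells with ProLink-tagged human GLP-1R and enzyme-acceptor-tagged β-arrestin-2 treated with serially diluted peptides in assay buffer containing 0.1% hydrolyzed casein, 90 min at 37 °C.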

[4] = target: T3, human Gcg receptor (Homo sapiens, UniProt P47871); experiment: [125I]-Glucagon binding (SPA), human Gcg receptor; settings: read-out: hGLcgR Ki, nM (SEM, n)
T3 construct: expressed in transfected cells; crude membranes
Summary of the method: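 Cell pellets were lysed in hypotonic Tris buffer, pH 7.5, homogenized, and spun at low then high speed to give crude membranes. Ki was derived from the fitted IC50.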

[5] = target: T2, human GLP-1R; experiment: [125I]-GLP-1 binding (SPA), human GLP-1 receptor; set-up: expressed in transfected cells; crude membranes; settings: read-out: hGLP1R Ki, (nM) (SEM, n)
Summary of the method: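 Frozen cell pellets are lysed on ice in hypotonic Tris buffer, pH 7.5, homogenized, and centrifuged to a membrane pellet resuspended at about 1 to 3 mg/mL. Binding is then measured in HEPES-based buffer at pH 7.4, and curves are fitted to give IC50 and Ki.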

[6] = target: T4, human GIP receptor (Homo sapiens, UniProt P48546); experiment: [125I]-GIP binding (SPA), human GIP receptor; settings: read-out: hGIPR Ki, nM (SEM, n)
T4 construct: expressed in transfected cells; crude membranes
T4 sequence (P48546 22-466): T1 sequence (P48546 22-466)

[7] = target: T2, human GLP-1R; experiment: GLP-1R HEK293 cell membrane [35S]GTPγS binding assay; assay type: biochemical; set-up: expressed in transfected cells; host or cells: HEK293 cells expressing human GLP-1R; membranes; settings: HEK293 cell membranes expressing human GLP-1R, [35S]GTPγS binding; read-out: hGLP1R GTPgS Rel EC50 nM (SEM, n)
Summary of the method: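 Membranes from HEK293 cells expressing the receptor incubated with peptide and […] [35S]GTPγS in HEPES pH 7.4 buffer with NaCl, MgCl2, saponin and BSA, 30 min at room temperature. Gαs-bound label captured by anti-Gαs antibody/SPA beads and counted; EC50 from four-parameter logistic fit.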

[8] = PathHunter β-arrestin-2 recruitment, 0.1% casein, read-out: hGLP1R B-Arrestin2 Rel EC50 uM (SEM, n)

T3 sequence (P47871 26-477): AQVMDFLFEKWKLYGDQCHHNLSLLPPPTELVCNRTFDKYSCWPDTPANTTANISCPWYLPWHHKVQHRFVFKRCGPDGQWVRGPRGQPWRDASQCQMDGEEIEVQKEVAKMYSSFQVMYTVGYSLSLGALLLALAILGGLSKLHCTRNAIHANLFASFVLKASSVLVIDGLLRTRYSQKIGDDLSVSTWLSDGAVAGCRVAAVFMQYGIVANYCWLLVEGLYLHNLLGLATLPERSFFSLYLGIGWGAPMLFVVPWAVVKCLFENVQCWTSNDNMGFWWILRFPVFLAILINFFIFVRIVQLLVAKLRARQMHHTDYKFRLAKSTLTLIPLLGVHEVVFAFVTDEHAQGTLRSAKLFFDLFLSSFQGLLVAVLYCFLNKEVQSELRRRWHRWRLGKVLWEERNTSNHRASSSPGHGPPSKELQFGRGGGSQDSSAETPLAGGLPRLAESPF
T2 sequence (P43220 24-463): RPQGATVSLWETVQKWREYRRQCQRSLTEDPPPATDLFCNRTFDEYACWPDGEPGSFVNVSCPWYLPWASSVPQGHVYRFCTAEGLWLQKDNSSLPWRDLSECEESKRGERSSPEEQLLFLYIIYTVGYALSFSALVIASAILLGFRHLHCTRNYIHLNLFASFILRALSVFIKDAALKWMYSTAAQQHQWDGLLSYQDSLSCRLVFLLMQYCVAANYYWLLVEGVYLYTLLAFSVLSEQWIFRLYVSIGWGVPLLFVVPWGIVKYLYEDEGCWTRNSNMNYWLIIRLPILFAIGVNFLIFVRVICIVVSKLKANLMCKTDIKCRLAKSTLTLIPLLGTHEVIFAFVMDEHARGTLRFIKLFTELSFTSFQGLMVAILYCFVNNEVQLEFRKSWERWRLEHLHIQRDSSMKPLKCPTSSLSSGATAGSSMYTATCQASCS
Sequence of human GLP-1 receptor (GLP-1R) (P43220 24-463): as above

CC[C@H](C)[C@H](NC(=O)[C@H](CC(C)C)NC(=O)[C@H](Cc1ccc(O)cc1)NC(=O)[C@@H](CCC(=O)O)NC(=O)[C@@H](NC(=O)[C@H](Cc1ccccc1)NC(=O)[C@H](CCC(=O)O)NC(=O)C(C)(C)NC(=O)[C@H](CCC(N)=O)NC(=O)[C@H](C)NC(=O)[C@H](CCCCNC(=O)COCCOCCNC(=O)COCCOCCNC(=O)CC[C@H](NC(=O)CCCCCCCCCCCCCCCCCCC(=O)O)C(=O)O)NC(=O)[C@H](CCCN)NC(=O)[C@H](CC(=O)O)NC(=O)[C@H](CC(C)C)NC(=O)[C@](C)(CC(C)C)NC(=O)[C@@H](NC(=O)[C@H](CO)NC(=O)[C@H](Cc1ccc(O)cc1)NC(=O)[C@H](CC(=O)O)NC(=O)[C@H](CO)NC(=O)[C@@H](NC(=O)[C@H](Cc1ccccc1)NC(=O)[C@@H](NC(=O)CNC(=O)[C@H](CCC(=O)O)NC(=O)C(C)(C)NC(=O)[C@H](N)Cc1ccc(O)cc1)[C@@H](C)O)[C@@H](C)O)[C@@H](C)CC)[C@@H](C)CC)C(=O)N[C@@H](C)C(=O)NCC(=O)NCC(=O)N1CCC[C@H]1C(=O)N[C@@H](CO)C(=O)N[C@@H](CO)C(=O)NCC(=O)N[C@@H](C)C(=O)N1CCC[C@H]1C(=O)N1CCC[C@H]1C(=O)N1CCC[C@H]1C(=O)N[C@@H](CO)C(N)=O [Example 354] (H-[dY][Aib]EGTFTSDYSI[αMeL]LD[Orn]K([AEEA-AEEA-γGlu-C20 diacid])AQ[Aib]EFI[dE]YLIAGGPSSGAPPPS-NH2; N-terminus assumed)
EC50 [1]: 0.233 nM | EC50 [2]: 0.54 nM | EC50 [3, 8]: 0.255 µM | hGLP1R B-Arrestin2 % Top [3]: 22.7% | Ki [4]: > 953 nM | Ki [5]: 7.85 nM | Ki [6]: 0.175 nM | EC50 [7]: 0.967 nM

CC[C@H](C)[C@H](NC(=O)[C@H](CC(C)C)NC(=O)[C@H](Cc1ccc(O)cc1)NC(=O)[C@H](CCC(=O)O)NC(=O)[C@@H](NC(=O)[C@H](Cc1ccccc1)NC(=O)[C@H](C)NC(=O)C(C)(C)NC(=O)[C@H](CCC(N)=O)NC(=O)[C@H](C)NC(=O)[C@H](CCCCNC(=O)COCCOCCNC(=O)COCCOCCNC(=O)CC[C@H](NC(=O)CCCCCCCCCCCCCCCCC(=O)O)C(=O)O)NC(=O)[C@H](CCCCN)NC(=O)[C@H](CC(=O)O)NC(=O)[C@H](CC(C)C)NC(=O)[C@H](CC(C)C)NC(=O)[C@@H](NC(=O)[C@H](CO)NC(=O)[C@H](Cc1ccc(O)cc1)NC(=O)[C@H](CC(=O)O)NC(=O)[C@H](CO)NC(=O)[C@@H](NC(=O)[C@H](Cc1ccccc1)NC(=O)[C@@H](NC(=O)CNC(=O)[C@H](CCC(=O)O)NC(=O)C(C)(C)NC(=O)[C@@H](N)Cc1ccc(O)cc1)[C@@H](C)O)[C@@H](C)O)[C@@H](C)CC)[C@@H](C)CC)C(=O)N[C@@H](CCC(=O)O)C(=O)NCC(=O)NCC(=O)N1CCC[C@H]1C(=O)N[C@@H](CO)C(=O)N[C@@H](CO)C(=O)NCC(N)=O [Example 266] (H-Y[Aib]EGTFTSDYSILLDKK([AEEA-AEEA-γGlu-C18 diacid])AQ[Aib]AFIEYLIEGGPSSG-NH2)
EC50 [1]: 0.0442 nM | EC50 [2]: 0.0883 nM | EC50 [3, 8]: 0.016 µM | hGLP1R B-Arrestin2 % Top [3]: 17.1% | Ki [4]: 193 nM | Ki [5]: 2.01 nM | Ki [6]: 0.0666 nM | EC50 [7]: 0.865 nM

CC[C@H](C)[C@H](NC(=O)[C@H](CC(C)C)NC(=O)[C@](C)(Cc1ccc(O)cc1)NC(=O)[C@H](CCC(=O)O)NC(=O)[C@@H](NC(=O)[C@H](Cc1ccccc1)NC(=O)[C@H](CCC(=O)O)NC(=O)C(C)(C)NC(=O)[C@H](CCC(N)=O)NC(=O)[C@H](C)NC(=O)[C@H](CCCCNC(=O)COCCOCCNC(=O)COCCOCCNC(=O)CC[C@H](NC(=O)CCCCCCCCCCCCCCCCCCC(=O)O)C(=O)O)NC(=O)[C@H](CCCN)NC(=O)[C@H](CC(=O)O)NC(=O)[C@H](CC(C)C)NC(=O)[C@](C)(CC(C)C)NC(=O)[C@@H](NC(=O)[C@H](CO)NC(=O)[C@H](Cc1ccc(O)cc1)NC(=O)[C@H](CC(=O)O)NC(=O)[C@H](CO)NC(=O)[C@@H](NC(=O)[C@H](Cc1ccccc1)NC(=O)[C@@H](NC(=O)CNC(=O)[C@H](CCC(=O)O)NC(=O)C(C)(C)NC(=O)[C@H](N)Cc1ccc(O)cc1)[C@@H](C)O)[C@@H](C)O)[C@@H](C)CC)[C@@H](C)CC)C(=O)N[C@@H](C)C(=O)NCC(=O)NCC(=O)N1CCC[C@H]1C(=O)N[C@@H](CO)C(=O)N[C@@H](CO)C(=O)NCC(=O)N[C@@H](C)C(=O)N1CCC[C@H]1C(=O)N1CCC[C@H]1C(=O)N1CCC[C@H]1C(=O)N[C@@H](CO)C(N)=O [Example 293]
EC50 [1]: 0.0562 nM | EC50 [2]: 0.132 nM | EC50 [3, 8]: 0.00719 µM | hGLP1R B-Arrestin2 % Top [3]: 29.5% | Ki [4]: 668 nM | Ki [5]: 1.64 nM | Ki [6]: 0.0775 nM | EC50 [7]: 0.368 nM

CC[C@H](C)[C@H](NC(=O)[C@H](CC(C)C)NC(=O)[C@H](Cc1ccc(O)cc1)NC(=O)[C@@H](CCC(=O)O)NC(=O)[C@@H](NC(=O)[C@H](Cc1ccccc1)NC(=O)[C@H](C)NC(=O)C(C)(C)NC(=O)[C@H](CCC(N)=O)NC(=O)[C@H](C)NC(=O)[C@H](CCCCNC(=O)COCCOCCNC(=O)COCCOCCNC(=O)CC[C@H](NC(=O)CCCCCCCCCCCCCCCCCCC(=O)O)C(=O)O)NC(=O)[C@H](CCCN)NC(=O)[C@H](CC(=O)O)NC(=O)[C@H](CC(C)C)NC(=O)[C@](C)(CC(C)C)NC(=O)[C@@H](NC(=O)[C@H](CO)NC(=O)[C@H](Cc1ccc(O)cc1)NC(=O)[C@H](CC(=O)O)NC(=O)[C@H](CO)NC(=O)[C@@H](NC(=O)[C@H](Cc1ccccc1)NC(=O)[C@@H](NC(=O)CNC(=O)[C@H](CCC(=O)O)NC(=O)C(C)(C)NC(=O)[C@H](N)Cc1ccc(O)cc1)[C@@H](C)O)[C@@H](C)O)[C@@H](C)CC)[C@@H](C)CC)C(=O)N[C@@H](C)C(=O)NCC(=O)NCC(=O)N1CCC[C@H]1C(=O)N[C@@H](CO)C(=O)N[C@@H](CO)C(=O)NCC(=O)N[C@@H](C)C(=O)N1CCC[C@H]1C(=O)N1CCC[C@H]1C(=O)N1CCC[C@H]1C(=O)N[C@@H](CO)C(N)=O [Example 291] (H-[dY][Aib]EGTFTSDYSI[αMeL]LD[Orn]K([AEEA-AEEA-γGlu-C20 diacid])AQ[Aib]AFI[dE]YLIAGGPSSGAPPPS-NH2)
EC50 [1]: 0.118 nM | EC50 [2]: 0.15 nM | EC50 ([3]; 0.1% w/v hydrolyzed Casein, read-out: hGLP1R B-Arrestin2 Rel EC50): > 10 µM | EC50 [3, 8]: > 10 µM | Ki [4]: > 872 nM | Ki [5]: 3.16 nM | Ki [6]: 0.129 nM | EC50 [7]: 0.466 nM
